Measured values taken from patent US20070059756A1, “Immunointeractive molecules and their uses in treating subjects suffering from Hev b 5 allergies” (priority 1999, published 2007).

Experiments:
IL-5 = IL-5 production by latex specific oligoclonal T cells (ELISA on culture supernatants); format: cell-based, human; conditions: for IL-5: supernatant at 48 hours; for secretion of IL-5 (in words): patient 4 T cell line
Method: (§1) Representative stimulatory and non-stimulatory peptides were selected and T cells cultured in triplicate with these peptides. At 48 hours 50 μl of supernatant was harvested from the cultures and IL-5 and IFNγ were assayed by ELISA using paired cytokine antibodies (from Pharmingen Becton Dickinson, USA and Endogen, USA respectively). For this, opaque flat bottom ELISA plates (Nalgene, Nunc International) were coated with 30 μl capture antibody at 2 μg/ml in 0.1 M NaHCO3 pH 8.2 coating buffer overnight at 4° C. After washing three times with PBS/0.5% Tween the wells were blocked with 3% BSA/PBS at room temperature for 2 hours. The plates were washed and 30 μL pooled triplicate culture supernatants added in duplicate. […] Light emission was read immediately on a Lumicount microplate Glow Luminometer (Packard Instrument Company). A standard curve was run each time using known concentrations of standard cytokine samples and the concentrations of IL-S and IFNγ in the culture supernatants calculated accordingly. The lower limit of detection of the IL-5 assay was 20 pg/ml and the lower limit of detection of the IFN-γ assay was 2 pg/ml.

IFNγ = IFNγ production by latex specific oligoclonal T cells (ELISA on culture supernatants); format: cell-based, human; conditions: supernatant at 48 hours
Method: as §1

[1] = system: latex specific T cell lines; experiment: Oligoclonal T cell proliferation assay (3H-thymidine incorporation); format: cell-based, human; design: key to Proliferation inducing (+) or non-inducing (−) peptide: Proliferation inducing and non-inducing peptides are indicated by (+) and (−) respectively; Proliferation inducing and non-inducing peptides are indicated by (+) and (−) respectively; conditions: for Oligoclonal proliferative response: 4 day cultures; for donors whose T cells proliferated in response to the peptide: five donors with IgE reactivity to rHev b 5/MBP
Method: Latex specific T cell lines were isolated using our well established methods for the generation of allergen specific oligoclonal T cell populations (O'Hehir et al., 1987). An initial primary culture was performed for each patient to determine the optimal concentration of LAL for stimulation. For this, peripheral blood mononuclear cells (PBMC) separated from heparinised venous blood by density centrifugation (2×10^5/well) were stimulated with LAL over a concentration range 0.03 to 100 μg/ml, with control cultures of PBMC alone or stimulated with tetanus toxoid. All cultures were maintained in complete medium (RPMI-1640, Gibco Life Technologies supplemented with 2 mmol/L L-glutamine, 100 IU/ml penicillin-streptomycin and 5% screened, heat inactivated human AB serum [Sigma]). […] Therefore, to generate T cell lines, PBMC (2.5×10^6/well) were stimulated for 1 week with LAL at a concentration of 20 μg/ml in 24-well tissue culture plates (Costar, USA). After 7 days, lymphoblasts (1×10^6/well) were restimulated for one week with LAL at a concentration of 20 μg/ml in the presence of an equal number of irradiated (3000 rad) autologous PBMC as antigen presenting cells (APC). On days 2 and 4, cultures were supplemented with Lymphocult-T (5% v/v; Biotest Folex, Germany) and fresh medium. At the end of the second week, lymphoblasts were restimulated for one week with rhev b 5/MBP at a concentration of 20 μg/ml as described above. Oligoclonal T cells were recovered, washed and tested in proliferation and cytokine assays (as described below) either fresh or after cryopreservation in liquid nitrogen. We have previously shown that CD4^+ T cells are preferentially expanded in these cultures.
Oligoclonal T cell blasts (5×10^4) were incubated in 96-well round bottom plates (Linbro, ICN Biomedicals, USA) in triplicate with equal numbers of irradiated APC in the presence of LAL at concentrations ranging from 0.03-100 μg/ml, rHev b 5/MBP (10 and 20 μg/ml), MBP (10 and 20 μg/ml), overlapping peptides of the Hev b 5 sequence (10 and 30 μg/ml), Lymphocult-T (10 IU/ml) or PHA (3 μg/ml). Cultures of T cells and APC in the absence of antigen, T cells alone and APC alone in the absence of antigen were included as controls. After 72 hours cultures were pulsed with 1 μCi of ^3H-thymidine (^3HTdR; Du Pont, NEN) and harvested 12-16 hours later. Proliferation as correlated with ^3HTdR incorporation was measured by liquid scintillation spectroscopy. Results are expressed as mean counts per minute (cpm) for triplicate cultures with standard deviation (SD; ±20% for all experiments).

IgE = conditions: cited from earlier work
[2] = P1 T cell line, peptide 10 μg/ml
[3] = P1 T cell line, peptide 30 μg/ml
[4] = P2 T cell line, peptide 10 μg/ml
[5] = P2 T cell line, peptide 30 μg/ml
[6] = P3 T cell line, peptide 10 μg/ml
[7] = P3 T cell line, peptide 30 μg/ml
[8] = P4 T cell line, peptide 10 μg/ml
[9] = P4 T cell line, peptide 30 μg/ml
[10] = P1 T cell line, antigen 10 μg/ml
[11] = P1 T cell line, antigen 30 μg/ml
[12] = P2 T cell line, antigen 10 μg/ml
[13] = P2 T cell line, antigen 30 μg/ml
[14] = P3 T cell line, antigen 10 μg/ml
[15] = P3 T cell line, antigen 30 μg/ml
[16] = P4 T cell line, antigen 10 μg/ml
[17] = P4 T cell line, antigen 30 μg/ml
[18] = P5 T cell line, antigen 10 μg/ml
[19] = P5 T cell line, antigen 30 μg/ml
[20] = P6 T cell line, antigen 10 μg/ml
[21] = P6 T cell line, antigen 30 μg/ml

## TKETETEAPAAPAEGEKPAE [Hev b 5 (109-128)]
IL-5; [2]
  IL-5: 0 pg/mL
IL-5; [3]
  IL-5: 69 pg/mL
IL-5; [4]
  IL-5/IFNγ ratio: 4
  IL-5: 293 pg/mL
IL-5; [5]
  IL-5/IFNγ ratio: 6.1
  IL-5: 595 pg/mL
IL-5; [6]
  IL-5/IFNγ ratio: 5.5
  IL-5: 1403 pg/mL
IL-5; [7]
  IL-5/IFNγ ratio: 5.3
  IL-5: 1559 pg/mL
IL-5; [8]
  IL-5/IFNγ ratio: 166
  IL-5: 166 pg/mL
IL-5; [9]
  IL-5/IFNγ ratio: 212
  IL-5: 212 pg/mL
IL-5
  secretion of IL-5 (in words): secretion of IL-5
IFNγ; [2]
  IFNγ: 0 pg/mL
IFNγ; [3]
  IFNγ: 0 pg/mL
IFNγ; [4]
  IFNγ: 73 pg/mL
IFNγ; [5]
  IFNγ: 97 pg/mL
IFNγ; [6]
  IFNγ: 257 pg/mL
IFNγ; [7]
  IFNγ: 292 pg/mL
IFNγ; [8]
  IFNγ: 0 pg/mL
IFNγ; [9]
  IFNγ: 0 pg/mL
[1]; P1 T cell line
  Proliferation inducing (+) or non-inducing (−) peptide: 109-128 (−)
[1]; [10]
  Oligoclonal proliferative response: 8.2 counts per minute × 10^−3
[1]; [11]
  Oligoclonal proliferative response: 5.6 counts per minute × 10^−3
[1]; P2 T cell line
  Proliferation inducing (+) or non-inducing (−) peptide: 109-128 (+)
[1]; [12]
  Oligoclonal proliferative response: 36.9 counts per minute × 10^−3
[1]; [13]
  Oligoclonal proliferative response: 42.7 counts per minute × 10^−3
[1]; P3 T cell line
  Proliferation inducing (+) or non-inducing (−) peptide: 109-128 (+)
[1]; [14]
  Oligoclonal proliferative response: 13.7 counts per minute × 10^−3
[1]; [15]
  Oligoclonal proliferative response: 17.3 counts per minute × 10^−3
[1]; P4 T cell line
  Proliferation inducing (+) or non-inducing (−) peptide: 109-128 (+)
[1]; [16]
  Oligoclonal proliferative response: 2.3 counts per minute × 10^−3
[1]; [17]
  Oligoclonal proliferative response: 3.0 counts per minute × 10^−3
[1]; [18]
  Oligoclonal proliferative response: 1.3 counts per minute × 10^−3
[1]; [19]
  Oligoclonal proliferative response: 0.9 counts per minute × 10^−3
[1]; [20]
  Oligoclonal proliferative response: 0.9 counts per minute × 10^−3
[1]; [21]
  Oligoclonal proliferative response: 0.6 counts per minute × 10^−3
[1]
  donors whose T cells proliferated in response to the peptide: three of the five donors

## TPEKEEPTAAPAEPEAPAPE [Hev b 5 (46-65)]
IL-5; [2]
  IL-5/IFNγ ratio: 172
  IL-5: 344 pg/mL
IL-5; [3]
  IL-5/IFNγ ratio: 139.5
  IL-5: 279 pg/mL
IL-5; [4]
  IL-5/IFNγ ratio: 3.2
  IL-5: 58 pg/mL
IL-5; [5]
  IL-5/IFNγ ratio: 7.6
  IL-5: 408 pg/mL
IL-5; [6]
  IL-5/IFNγ ratio: 9.8
  IL-5: 3799 pg/mL
IL-5; [7]
  IL-5/IFNγ ratio: 14
  IL-5: 3186 pg/mL
IL-5; [8]
  IL-5/IFNγ ratio: 22.4
  IL-5: 561 pg/mL
IL-5; [9]
  IL-5/IFNγ ratio: 43.2
  IL-5: 519 pg/mL
IL-5
  secretion of IL-5 (in words): secretion of IL-5
IFNγ; [2]
  IFNγ: 2 pg/mL
IFNγ; [3]
  IFNγ: 2 pg/mL
IFNγ; [4]
  IFNγ: 18 pg/mL
IFNγ; [5]
  IFNγ: 54 pg/mL
IFNγ; [6]
  IFNγ: 388 pg/mL
IFNγ; [7]
  IFNγ: 227 pg/mL
IFNγ; [8]
  IFNγ: 25 pg/mL
IFNγ; [9]
  IFNγ: 12 pg/mL
[1]; P1 T cell line
  Proliferation inducing (+) or non-inducing (−) peptide: 46-65 (+)
[1]; [10]
  Oligoclonal proliferative response: 21.3 counts per minute × 10^−3
[1]; [11]
  Oligoclonal proliferative response: 19.6 counts per minute × 10^−3
[1]; P2 T cell line
  Proliferation inducing (+) or non-inducing (−) peptide: 46-65 (+)
[1]; [12]
  Oligoclonal proliferative response: 13.4 counts per minute × 10^−3
[1]; [13]
  Oligoclonal proliferative response: 22.6 counts per minute × 10^−3
[1]; P3 T cell line
  Proliferation inducing (+) or non-inducing (−) peptide: 46.65 (+)
[1]; [14]
  Oligoclonal proliferative response: 25.8 counts per minute × 10^−3
[1]; [15]
  Oligoclonal proliferative response: 19.2 counts per minute × 10^−3
[1]; P4 T cell line
  Proliferation inducing (+) or non-inducing (−) peptide: 46-65 (+)
[1]; [16]
  Oligoclonal proliferative response: 4.4 counts per minute × 10^−3
[1]; [17]
  Oligoclonal proliferative response: 5.3 counts per minute × 10^−3
[1]; [18]
  Oligoclonal proliferative response: 4.9 counts per minute × 10^−3
[1]; [19]
  Oligoclonal proliferative response: 5.6 counts per minute × 10^−3
[1]; [20]
  Oligoclonal proliferative response: 1.5 counts per minute × 10^−3
[1]; [21]
  Oligoclonal proliferative response: 1.2 counts per minute × 10^−3
[1]; fifth of five donors (patient 5)
  stimulation index: 5.6
[1]; first of five donors with IgE reactivity to rHev b 5/MBP (patient 1)
  stimulation index: 5.9
[1]
  donors whose T cells proliferated in response to the peptide: all five donors
[1]; fourth of five donors (patient 4)
  stimulation index: 5.9
[1]; second of five donors (patient 2)
  stimulation index: 10.8
[1]; third of five donors (patient 3)
  stimulation index: 5.0

B1: Hev b 5: major allergen in natural rubber latex, highly acidic and proline rich protein of Hevea brasiliensis (protein, listed as Hevea brasiliensis)
chain: MASVEVESAATALPKNETPEVTKAEETKTEEPAAPPASEQETADATPEKEEPTAAPAEPEAPAPETEKAEEVEKIEKTEEPAPEADQTTPEEKPAEPEPVAEEEPKHETKETETEAPAAPAEGEKPAEEEKPITEAAETATTEVPVEKTEE
IgE; HCW
  proportion of HCW with latex allergy whose IgE reacts: 92%
IgE; spina bifida patients
  proportion of spina bifida patients with latex allergy whose IgE reacts: 56%
